For one assay, the target named is PD-1/PD-L1 (Homo sapiens (Human), UniProt Q9NZQ7). As to the kind of experiment: PD-1/PD-L1 Binding Assay (Alphascreen). To be noted: numeric values. How it is done:
PD-1/PD-L1 Binding Assay (Alphascreen)
The assays were conducted in a standard black 384-well polystyrene plate with a final volume of 20 μL. Inhibitors were first serially diluted in DMSO and then added to the plate wells before the addition of other reaction components. The final concentration of DMSO in the assay was […]. Add 100 nL/well of compound to the 384 reaction plate (6008280, PerkinElmer) with Echo and centrifuge at 1000 rpm for 1 minute. Add 5 μL/well 4×PD-L1 solutions to the 384 reaction plate, centrifuge at 1000 rpm for 1 minute, and add 5 μL/well 4×PD-1 solutions, centrifuge at 1000 rpm for 1 minute, and incubate at 25° C. for 15 minutes. The concentrations of the compounds were 300, 100, 33.33, 11.11, 3.70, 1.23, 0.41, 0.137, 0.046, 0.015, 0 nM, respectively. Add 10 μL/well 2× Anti-6×His AlphaLISA Acceptor beads and Streptavidin Donor beads solution (PerkinElmer-AL356F) to the above 384 reaction plate, centrifuge at 1000 rpm for 1 minute, and incubate at 25° C. in the dark for 120 minutes. Read the AlphaLISA signal value using the Envision Reader. IC50 determination was performed by fitting the curve of percent control activity versus the log of the inhibitor concentration using the GraphPad Prism 8.0 software.
Chain of PD-1/PD-L1 (Q9NZQ7 19-238): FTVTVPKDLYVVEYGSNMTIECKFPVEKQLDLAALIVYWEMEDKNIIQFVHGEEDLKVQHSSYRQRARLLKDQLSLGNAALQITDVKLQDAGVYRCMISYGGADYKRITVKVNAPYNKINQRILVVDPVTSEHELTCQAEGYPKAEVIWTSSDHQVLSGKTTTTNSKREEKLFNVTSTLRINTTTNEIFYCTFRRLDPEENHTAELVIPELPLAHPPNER
As a reminder, the IC50 is the concentration needed to halve the response being measured. Read a high IC50 as lower potency. Regarding `Cc1c(-c2nc3cc(CN4CCC[C@H]4C(=O)O)c(OC(F)F)cc3o2)cccc1-c1cccc(-c2nc3cc(CN4CCCC4)c(OC(F)F)cc3o2)c1F` [Example 6, ((6-(difluoromethoxy)-2-(3′-(6-(difluoromethoxy)-5-(pyrrolidin-1-ylmethyl)benzo[d]oxazol-2-yl)-2′-fluoro-2-methyl-[1,1′-biphenyl]-3-yl)benzo[d]oxazol-5-yl)methyl)-L-proline], the IC50 came to 4.3 nM.
Turning to `Cc1c(Nc2nccc3cc(CN4CCCC[C@H]4C(=O)O)cnc23)cccc1-c1cccc(-c2nc3cc(CN4CCC[C@H]4C(=O)O)c(OC(F)F)cc3o2)c1C` [Example 173, (S)-1-((8-((3′-(5-(((S)-2-carboxypyrrolidin-1-yl)methyl)-6-(difluoromethoxy)benzo[d]oxazol-2-yl)-2,2′-dimethyl-[1,1′-biphenyl]-3-yl)amino)-1,7-naphthyridin-3-yl)methyl)piperidine-2-carboxylic acid], the IC50 was 0.93 nM.
On to `Cc1c(-c2nc3cc(CN4CCC[C@H]4C(=O)O)c(OC(F)F)cc3o2)cccc1-c1cccc(-c2nc3cc(CN4CCC4)cc(C)c3o2)c1C` [Example 94, ((2-(3′-(5-(azetidin-1-ylmethyl)-7-methylbenzo[d]oxazol-2-yl)-2,2′-dimethyl-[1,1′-biphenyl]-3-yl)-6-(difluoromethoxy)benzo[d]oxazol-5-yl)methyl)-L-proline], for which the half-inhibitory concentration (IC50) was 1.9 nM.
The molecule `Cc1c(-c2nc3cc(CN4CC[C@H](C(=O)O)C4)c(OC(F)F)cc3o2)cccc1-c1cccc(-c2nc3cc(CN4CC(C)(C)C4)c(OC(F)F)cc3o2)c1C` [Example 86, (S)-1-((6-(difluoromethoxy)-2-(3′-(6-(difluoromethoxy)-5-((3,3-dimethylazetidin-1-yl)methyl)benzo[d]oxazol-2-yl)-2,2′-dimethyl-[1,1′-biphenyl]-3-yl)benzo[d]oxazol-5-yl)methyl)pyrrolidine-3-carboxylic acid] came in with an IC50 of 11 nM. Compared with the last molecule, the IC50 is about 5.8-fold higher.
Turning to `Cc1cc(-c2cccc(-c3cccc(-c4nc5cc(CN6CCC[C@H]6C(=O)O)c(OC(F)F)cc5o4)c3C)c2C)cc(C)c1CN1CCCC1` [Example 234, ((6-(difluoromethoxy)-2-(2,2′,3″,5″-tetramethyl-4″-(pyrrolidin-1-ylmethyl)-[1,1′:3′,1″- terphenyl]-3-yl)benzo[d]oxazol-5-yl)methyl)-L-proline], the half-maximal inhibitory concentration (IC50) was 0.52 nM.
For the molecule `Cc1c(-c2nc3cc(CN4CC(C(C)(C)O)C4)c(OC(F)F)cc3o2)cccc1-c1cccc(-c2nc3cc(CN4CCC[C@H]4C(=O)O)c(OC(F)F)cc3o2)c1C` [Example 69, ((6-(difluoromethoxy)-2-(3′-(6-(difluoromethoxy)-5-((3-(2-hydroxypropan-2-yl)azetidin-1-yl)methyl)benzo[d]oxazol-2-yl)-2,2′-dimethyl-[1,1′-biphenyl]-3-yl)benzo[d]oxazol-5-yl)methyl)-L-proline], the IC50 was found to be 0.49 nM. The IC50 values of the last two molecules are within 1.5-fold of each other.

Still in this assay, the particulars now being: range symbols.
`Cc1c(-c2nc3cc(CN4CCC[C@H]4C(=O)O)c(OC(F)F)cc3o2)cccc1-c1cccc(-c2nc3cc(CN4CC(C)(CN(C)C)C4)cc(C#N)c3o2)c1C` [Example 159, ((2-(3′-(7-cyano-5-((3-((dimethylamino)methyl)-3-methylazetidin-1-yl)methyl)benzo[d]oxazol-2-yl)-2,2′-dimethyl-[1,1′-biphenyl]-3-yl)-6-(difluoromethoxy)benzo[d]oxazol-5-yl)methyl)-L-proline] yielded an IC50 of 0.1 to 5 nM.
For `COc1nc(-c2cccc(-c3cccc(-c4nc5cc(CN6CCC[C@H]6C(=O)O)c(OC(F)F)cc5o4)c3C)c2C)ccc1CN1CC(C)(C)C1` [Example 271, ((6-(difluoromethoxy)-2-(3′-(5-((3,3-dimethylazetidin-1-yl)methyl)-6-methoxypyridin-2-yl)-2,2′-dimethyl-[1,1′-biphenyl]-3-yl)benzo[d]oxazol-5-yl)methyl)-L-proline], the IC50 lay within 0.1 to 5 nM.
Consider `Cc1c(-c2nc3cc(CN4CCC45CCC5)ccc3o2)cccc1-c1cccc(-c2nc3cc(CN4CCC[C@H]4C(=O)O)c(OC(F)F)cc3o2)c1C` [Example 107, ((2-(3′-(5-((1-azaspiro[3.3]heptan-1-yl)methyl)benzo[d]oxazol-2-yl)-2,2′-dimethyl-[1,1′-biphenyl]-3-yl)-6-(difluoromethoxy)benzo[d]oxazol-5-yl)methyl)-L-proline], for which the half-maximal inhibitory concentration (IC50) was in the range of 0.1 to 5 nM.
The molecule `Cc1c(-c2nc3cc(CN4CCC[C@H]4C(=O)O)c(OC(F)F)cc3o2)cccc1-c1cccc(-c2nc3cc(CN4CC(N(C)C5COC5)C4)cc(C#N)c3o2)c1C` [Example 149, ((2-(3′-(7-cyano-5-((3-(methyl(oxetan-3-yl)amino)azetidin-1-yl)methyl)benzo[d]oxazol-2-yl)-2,2′-dimethyl-[1,1′-biphenyl]-3-yl)-6-(difluoromethoxy)benzo[d]oxazol-5-yl)methyl)-L-proline] registered an IC50 of 0.1 to 5 nM.
With `Cc1c(-c2nc3cc(CN4CC(S(C)(=O)=O)C4)c(OC(F)F)cc3o2)cccc1-c1cccc(-c2nc3cc(CN4CCC[C@H]4C(=O)O)c(OC(F)F)cc3o2)c1C` [Example 41, ((6-(difluoromethoxy)-2-(3′-(6-(difluoromethoxy)-5-((3-(methylsulfonyl)azetidin-1-yl)methyl)benzo[d]oxazol-2-yl)-2,2′-dimethyl-[1,1′-biphenyl]-3-yl)benzo[d]oxazol-5-yl)methyl)-L-proline], the half-inhibitory concentration (IC50) was 5 to 50 nM.
Same read-out and setting: the same measure for `Cc1c(-c2nc3cc(CN4CC[C@@H](C(=O)O)C4)c(OC(F)F)cc3o2)cccc1-c1cccc(-c2nc3cc(CN4CCCC4)cc(C#N)c3o2)c1C` [Example 169, (R)-1-((2-(3′-(7-cyano-5-(pyrrolidin-1-ylmethyl)benzo[d]oxazol-2-yl)-2,2′-dimethyl-[1,1′-biphenyl]-3-yl)-6-(difluoromethoxy)benzo[d]oxazol-5-yl)methyl)pyrrolidine-3-carboxylic acid]: 0.1 to 5 nM; for `Cc1c(-c2nc3cc(CN4CCC[C@H]4C(=O)O)c(OC(F)F)cc3o2)cccc1-c1cccc(-c2cnc(CN3CCCC3)cc2F)c1C` [Example 262, ((6-(difluoromethoxy)-2-(3′-(4-fluoro-6-(pyrrolidin-1-ylmethyl)pyridin-3-yl)-2,2′-dimethyl-[1,1′-biphenyl]-3-yl)benzo[d]oxazol-5-yl)methyl)-L-proline]: 5 to 50 nM.
The molecule `Cc1c(-c2nc3cc(CN4CCC[C@H]4C(=O)O)c(OC(F)F)cc3o2)cccc1-c1cccc(-c2nc3cc(CN4CC(N(C)C)C4)cnc3o2)c1C` [Example 116, ((6-(difluoromethoxy)-2-(3′-(6-((3-(dimethylamino)azetidin-1-yl)methyl)oxazolo [5,4-b]pyridin-2-yl)-2,2′-dimethyl-[1,1′-biphenyl]-3-yl)benzo[d]oxazol-5-yl)methyl)-L-proline] gave an IC50 of 0.1 to 5 nM.
`Cc1c(-c2nc3cc(CN4CC[C@@H](C(=O)O)C4)c(OC(F)F)cc3o2)cccc1-c1cccc(-c2nc3cc(CN4CCC(C)C4)cc(C(F)(F)F)c3o2)c1C` (stereo partly drawn) [Example 91, (3R)-1-((6-(difluoromethoxy)-2-(2,2′-dimethyl-3′-(5-((3-methylpyrrolidin-1-yl)methyl)-7-(trifluoromethyl)benzo [d]oxazol-2-yl)-[1,1′-biphenyl]-3-yl)benzo[d]oxazol-5-yl)methyl)pyrrolidine-3-carboxylic acid] had a half-maximal inhibitory concentration (IC50) of 0.1 to 5 nM.
In turn, `Cc1c(-c2nc3cc(CN4CCC[C@H]4C(=O)O)c(OC(F)F)cc3o2)cccc1-c1cccc(-c2nc3cc(CN4CCC(C)(C#N)C4)cc(C#N)c3o2)c1C` (stereo partly drawn) [Example 316, ((2-(3′-(7-cyano-5-((3-cyano-3-methylpyrrolidin-1-yl)methyl)benzo[d]oxazol-2-yl)-2,2′-dimethyl-[1,1′-biphenyl]-3-yl)-6-(difluoromethoxy)benzo[d]oxazol-5-yl)methyl)-L-proline] came in with an IC50 of 5 to 50 nM.
As for `CCNCc1cc2nc(-c3cccc(-c4cccc(-c5nc6cc(CN7CCC[C@H]7C(=O)O)c(OC(F)F)cc6o5)c4C)c3C)oc2cc1Cl` [Example 97, ((2-(3′-(6-chloro-5-((ethylamino)methyl)benzo[d]oxazol-2-yl)-2,2′-dimethyl-[1,1′-biphenyl]-3-yl)-6-(difluoromethoxy)benzo[d]oxazol-5-yl)methyl)-L-proline], the concentration for half-maximal inhibition (IC50) was in the range of 0.1 to 5 nM.
`Cc1c(-c2nc3cc(CN(C)[C@@H]4CCC[C@@H]4O)c(OC(F)F)cc3o2)cccc1-c1cccc(-c2nc3cc(CN4CCC[C@@H]4C(=O)O)c(OC(F)F)cc3o2)c1C` [Example 26, ((6-(difluoromethoxy)-2-(3′-(6-(difluoromethoxy)-5-((((1R,2S)-2-hydroxycyclopentyl) (methyl)amino)methyl)benzo[d]oxazol-2-yl)-2,2′-dimethyl-[1,1′-biphenyl]-3-yl)benzo[d]oxazol-5-yl)methyl)-D-proline]: the IC50 was in the range of 0.1 to 5 nM.
The molecule `Cc1c(-c2nc3cc(CN4CCC[C@H]4C(=O)O)c(OC(F)F)cc3o2)cccc1-c1cccc(-c2nc3cc(CN4CCC(F)C4)cc(C(F)(F)F)c3o2)c1C` (stereo partly drawn) [Example 166, ((6-(difluoromethoxy)-2-(3′-(5-((3-fluoropyrrolidin-1-yl)methyl)-7-(trifluoromethyl)benzo[d]oxazol-2-yl)-2,2′-dimethyl-[1,1′-biphenyl]-3-yl)benzo[d]oxazol-5-yl)methyl)-L-proline] displayed an IC50 of 5 to 50 nM.
